# Reference: paper PMC9915920, “The Antidepressant Paroxetine Reduces the Cardiac Sodium Current” (International Journal of Molecular Sciences, 2023)
# Molecular target: T1, cardiac voltage-gated sodium channel (NaV1.5) (Homo sapiens, UniProt Q14524)
# T1 construct: gene SCN5A; human NaV1.5 channels stably expressed in HEK-293 cells, without β-subunits
# Assay: whole-cell patch clamp, peak NaV1.[…] current at −[…] mV, HEK-293 cells
# Type: cell-based
# T1 sequence (Q14524 whole entry): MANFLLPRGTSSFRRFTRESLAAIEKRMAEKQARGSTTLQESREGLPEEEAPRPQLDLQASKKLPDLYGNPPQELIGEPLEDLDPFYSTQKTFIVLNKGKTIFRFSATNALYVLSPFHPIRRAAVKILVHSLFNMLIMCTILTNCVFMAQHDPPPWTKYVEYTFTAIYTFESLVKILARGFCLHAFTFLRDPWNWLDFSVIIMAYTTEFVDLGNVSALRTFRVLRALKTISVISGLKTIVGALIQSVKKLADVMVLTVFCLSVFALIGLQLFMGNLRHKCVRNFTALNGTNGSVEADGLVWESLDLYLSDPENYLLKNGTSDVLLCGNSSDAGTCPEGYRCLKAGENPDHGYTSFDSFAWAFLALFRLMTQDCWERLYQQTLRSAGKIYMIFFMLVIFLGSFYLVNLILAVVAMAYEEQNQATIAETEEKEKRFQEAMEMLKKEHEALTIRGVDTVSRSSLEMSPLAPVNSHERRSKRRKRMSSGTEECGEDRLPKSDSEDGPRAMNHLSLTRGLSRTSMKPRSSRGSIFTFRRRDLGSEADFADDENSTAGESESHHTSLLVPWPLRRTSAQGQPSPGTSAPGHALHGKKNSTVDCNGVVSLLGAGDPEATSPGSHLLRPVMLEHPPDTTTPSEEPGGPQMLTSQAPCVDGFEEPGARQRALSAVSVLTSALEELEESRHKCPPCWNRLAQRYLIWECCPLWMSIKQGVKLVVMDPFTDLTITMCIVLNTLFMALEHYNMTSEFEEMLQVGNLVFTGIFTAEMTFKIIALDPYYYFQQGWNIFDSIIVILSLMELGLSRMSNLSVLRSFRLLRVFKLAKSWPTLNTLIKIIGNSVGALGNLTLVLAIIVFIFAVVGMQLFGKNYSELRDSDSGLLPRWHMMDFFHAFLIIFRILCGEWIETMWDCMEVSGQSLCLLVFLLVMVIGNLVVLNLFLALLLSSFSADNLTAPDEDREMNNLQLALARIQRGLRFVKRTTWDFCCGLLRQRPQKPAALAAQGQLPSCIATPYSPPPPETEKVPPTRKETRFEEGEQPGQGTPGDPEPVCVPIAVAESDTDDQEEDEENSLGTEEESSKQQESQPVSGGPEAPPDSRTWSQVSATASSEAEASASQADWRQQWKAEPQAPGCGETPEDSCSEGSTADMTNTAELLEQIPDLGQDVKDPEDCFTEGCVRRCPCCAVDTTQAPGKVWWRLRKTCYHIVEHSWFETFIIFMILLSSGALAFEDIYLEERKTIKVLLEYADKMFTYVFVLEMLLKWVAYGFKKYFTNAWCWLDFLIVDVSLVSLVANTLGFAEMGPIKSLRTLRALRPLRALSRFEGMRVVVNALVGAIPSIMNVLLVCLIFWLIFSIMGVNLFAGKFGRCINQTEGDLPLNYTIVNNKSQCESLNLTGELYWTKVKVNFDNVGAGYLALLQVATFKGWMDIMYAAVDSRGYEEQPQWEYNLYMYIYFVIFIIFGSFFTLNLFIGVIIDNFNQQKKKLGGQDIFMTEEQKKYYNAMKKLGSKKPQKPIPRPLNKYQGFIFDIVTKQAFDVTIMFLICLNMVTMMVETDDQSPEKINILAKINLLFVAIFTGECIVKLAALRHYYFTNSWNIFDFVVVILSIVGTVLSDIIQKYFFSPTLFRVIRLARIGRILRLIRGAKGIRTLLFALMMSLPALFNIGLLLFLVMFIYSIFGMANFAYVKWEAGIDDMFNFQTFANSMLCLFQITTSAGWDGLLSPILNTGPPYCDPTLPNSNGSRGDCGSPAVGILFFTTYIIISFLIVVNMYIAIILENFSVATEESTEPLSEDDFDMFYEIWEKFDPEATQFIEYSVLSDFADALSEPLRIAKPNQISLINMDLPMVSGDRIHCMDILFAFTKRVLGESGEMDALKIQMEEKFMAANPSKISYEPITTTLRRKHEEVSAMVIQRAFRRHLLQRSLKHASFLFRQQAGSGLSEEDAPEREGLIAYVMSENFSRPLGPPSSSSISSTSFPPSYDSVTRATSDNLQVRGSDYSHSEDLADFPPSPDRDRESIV
smiles,measurement,value
Fc1ccc([C@@H]2CCNC[C@H]2COc2ccc3c(c2)OCO3)cc1 [paroxetine],IC50,6.8 ± 1.1 µM
